Source: patent US12673947B2 (Cytosinlab Therapeutics Co., Ltd., priority 2020, dated 2026)

How the values were obtained:
FLT3 = biological target: T1, FLT3 (Homo sapiens, UniProt P36888); assay: FLT3 kinase in vitro inhibitory activity experiment (Caliper mobility shift, conversion rate); assay type: biochemical; details: IC50 class, read-out: Enzyme activity FLT3
T1 construct: purchased Carna 08-145
T1 sequence (P36888 27-993): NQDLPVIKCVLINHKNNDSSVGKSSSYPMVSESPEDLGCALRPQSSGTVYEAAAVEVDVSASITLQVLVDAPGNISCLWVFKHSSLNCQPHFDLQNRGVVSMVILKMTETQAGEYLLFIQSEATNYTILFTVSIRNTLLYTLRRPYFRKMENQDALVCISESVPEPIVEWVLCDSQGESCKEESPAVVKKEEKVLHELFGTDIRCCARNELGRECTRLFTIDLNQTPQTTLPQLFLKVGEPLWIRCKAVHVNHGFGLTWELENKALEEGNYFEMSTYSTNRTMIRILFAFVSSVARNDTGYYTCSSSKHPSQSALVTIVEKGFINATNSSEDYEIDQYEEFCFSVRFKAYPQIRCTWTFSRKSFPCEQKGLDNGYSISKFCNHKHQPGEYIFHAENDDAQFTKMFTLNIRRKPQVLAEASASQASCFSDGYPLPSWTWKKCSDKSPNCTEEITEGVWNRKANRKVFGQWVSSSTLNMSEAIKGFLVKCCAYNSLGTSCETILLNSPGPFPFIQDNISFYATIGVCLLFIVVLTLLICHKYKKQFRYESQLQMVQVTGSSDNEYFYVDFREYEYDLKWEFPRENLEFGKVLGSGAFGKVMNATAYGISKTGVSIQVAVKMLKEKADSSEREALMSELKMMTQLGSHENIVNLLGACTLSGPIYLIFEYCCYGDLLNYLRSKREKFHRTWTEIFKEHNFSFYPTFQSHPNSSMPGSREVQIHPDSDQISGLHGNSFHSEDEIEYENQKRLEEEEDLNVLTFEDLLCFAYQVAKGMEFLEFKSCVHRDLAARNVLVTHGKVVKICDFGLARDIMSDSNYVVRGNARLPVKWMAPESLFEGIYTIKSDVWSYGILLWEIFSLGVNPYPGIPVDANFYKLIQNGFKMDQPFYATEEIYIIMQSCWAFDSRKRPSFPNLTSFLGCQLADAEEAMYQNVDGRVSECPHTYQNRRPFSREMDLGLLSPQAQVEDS
How it was run: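 FLT3 was pre-incubated with compound for 10 min at room temperature, then the reaction was started with ATP plus Kinase substrate 2 and run 30 min at room temperature before stop solution. Substrate conversion was read by Caliper mobility shift.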

MV4;11 cells = assay: MV4;11 in vitro inhibition of proliferation assay (CellTiter-Glo, 72 hours); assay type: cell-based; details: Homo sapiens, MV4-11, 72 h, IC50 class, read-out: Inhibitory activity of cell proliferation MV4;11
How it was run: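 MV4;11 cells in IMDM/10% FBS, 2000 per well, were exposed to 9-point 3-fold DMSO dilutions from 10 uM (final DMSO 0.3%) in triplicate for 72 hours at 37° C., 5% CO2. Viability was read by CellTiter-Glo luminescence, and IC50 came from a four-parameter fit of inhibition.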

Compound	IC50 (FLT3)	IC50 (MV4;11 cells)
CCc1nc2c(N)ncc(-c3ccc(N4CCC(N5CCN(C)CC5)CC4)c(OC(F)F)c3)c2nc1NC1CCOCC1 [Compound 139]	≤ 10 nM	10 to 100 nM
CCc1nc2c(N)ncc(-c3cnn(C4CC(C)(C)N(C)C(C)(C)C4)c3)c2nc1N[C@@H]1CC[C@H](O)C1 [Compound 169, (1S,3R)-3-((5-amino-3-ethyl-8-(1-(1,2,2,6,6-pentamethylpiperidine-4-yl)-1H-pyrazol-4-yl)pyridino[3,4-b]pyrazine-2-yl)amino)cyclopentan-1-ol]	≤ 10 nM	≤ 10 nM
CCc1nc2c(N)ncc(-c3ccc(N4CCC(N5CCN(C)CC5)CC4)c(OC(C)C)c3)c2nc1NC1CCOCC1 [Compound 22]	≤ 10 nM	10 to 100 nM
CCc1nc2c(N)ncc(-c3cnn(C4CCN(CCO)CC4)c3)c2nc1N[C@@H]1CC[C@H](O)C1 [Compound 207, (1S,3R)-3-((5-amino-3-ethyl-8-(1-(1-(2-hydroxyethyl)piperidin-4-yl)-1H-pyrazol-4-yl)pyridino[3,4-b]pyrazin-2-yl)amino)cyclopentan-1-ol]	≤ 10 nM	≤ 10 nM
CCc1nc2c(N)ncc(-c3cnn(C4CCN(S(=O)(=O)C(C)C)CC4)c3)c2nc1N[C@@H]1CC[C@H](O)C1 [Compound 187, (1S,3R)-3-((5-amino-3-ethyl-8-(1-(1-(isopropylsulfonyl)piperidin-4-yl)-1H-pyrazol-4-yl)pyridino[3,4b]pyrazin-2-yl)amino)cyclopentan-1-ol]	≤ 10 nM	≤ 10 nM
CCc1nc2c(N)ncc(-c3cnn(C4CCN(C5CC5)CC4)c3)c2nc1N[C@H]1CCOC1 [Compound 228]	≤ 10 nM	10 to 100 nM
CCc1nc2c(N)ncc(-c3ccc(N4CCC(N5CC6CCC(C5)N6C)CC4)c(OC)c3)c2nc1NC1CCOCC1 [Compound 293, 3-ethyl-8-(3-methoxy-4-(4-(8-methyl-3,8-diazabicyclo[3.2.1]octan-3-yl)piperidin-1-yl)phenyl)-N2-(tetrahydro-2H-pyran-4-yl)pyridino [3,4-b]pyrazin-2,5-diamine]	≤ 10 nM	10 to 100 nM
CCc1nc2c(N)ncc(-c3cnn(C4C[C@H]5CC[C@@H](C4)N5C(C)C)c3)c2nc1N[C@@H]1CC[C@H](O)C1 (stereo partly shown) [Compound 166]	≤ 10 nM	≤ 10 nM
CCc1nc2c(N)ncc(-c3ccn(C)n3)c2nc1NC1CCOCC1 [Compound 138]	100 to 500 nM	> 500 nM
CCc1nc2c(N)ncc(-c3cnn(C4CCN(C(CC)CC)CC4)c3)c2nc1NC1CCOCC1 [Compound 232, 3-Ethyl-8-(1-(1-(pent-3-yl)piperidin-4-yl)-1H-pyrazol-4-yl)-N2-(tetrahydro-2H-pyran-4-yl)pyridino [3,4-b]pyrazine-2,5-diamine]	≤ 10 nM	≤ 10 nM
CCc1nc2c(N)ncc(-c3cnn(-c4ccnc(C)n4)c3)c2nc1N[C@@H]1CC[C@H](O)C1 [Compound 180, (1S,3R)-3-((5-amino-3-ethyl-8-(1-(2-methylpyrimidin-4-yl)-1H-pyrazol-4-yl)pyridino[3,4-b]pyrazin-2-yl)amino)cyclopentan-1-ol]	≤ 10 nM	≤ 10 nM
CCc1nc2c(N)ncc(-c3cnn(-c4ccc(C5CCNCC5)cc4)c3)c2nc1N[C@@H]1CC[C@H](O)C1 [Compound 278]	≤ 10 nM	≤ 10 nM
CCc1nc2c(N)ncc(-c3ccc(N4CCC(N5CCN(C)CC5)C4)c(OC)c3)c2nc1NC1CCOCC1 (stereo not shown) [Compound 46]	≤ 10 nM	10 to 100 nM
CCc1nc2c(N)ncc(-c3ccc(N4CCC(N5CCN(C)CC5)CC4)c(OC(F)(F)F)c3)c2nc1NC1CCOCC1 [Compound 17]	≤ 10 nM	10 to 100 nM
CCc1nc2c(N)ncc(-c3cnn(-c4cc(C)n(C)c(=O)c4)c3)c2nc1N[C@@H]1CC[C@H](O)C1 [Compound 299]	≤ 10 nM	10 to 100 nM
CCc1nc2c(N)ncc(-c3cnn(-c4ccnc(OC)c4)c3)c2nc1N[C@@H]1CC[C@H](O)C1 [Compound 309]	≤ 10 nM	≤ 10 nM
CCc1nc2c(N)ncc(-c3ccc(N4CCC(N5CCN(C)CC5)CC4)c(OC)c3)c2nc1NC1CCC(O)C1 (stereo not shown) [Compound 67]	≤ 10 nM	10 to 100 nM
CCc1nc2c(N)ncc(-c3ccc(N4CCC(N5CCN(C)CC5)CC4)c(OC)c3)c2nc1N[C@@H]1CCOC1 [Compound 251]	≤ 10 nM	10 to 100 nM
CCc1nc2c(N)ncc(-c3cnn(-c4ncccn4)c3)c2nc1N[C@@H]1CC[C@H](O)C1 [Compound 294]	≤ 10 nM	≤ 10 nM

Compound	IC50 (FLT3)	IC50 (MV4;11 cells)
CCc1nc2c(N)ncc(-c3cnn(-c4ccc(C(C)(C)C)cc4)c3)c2nc1N[C@@H]1CC[C@H](O)C1 [Compound 351]	≤ 10 nM	10 to 100 nM
CCc1nc2c(N)ncc(-c3ccc(N4CCC(N5CCN(C)CC5)CC4)c(OC)c3)c2nc1N[C@H]1CC[C@H](O)C1 [Compound 69]	≤ 10 nM	100 to 500 nM
CCc1nc2c(N)ncc(-c3ccc(N4CC5CCC(C4)O5)c(OC)c3)c2nc1N[C@@H]1CC[C@H](O)C1 [Compound 266]	≤ 10 nM	10 to 100 nM
CCc1nc2c(N)ncc(-c3cnn(-c4ccc(CNC)cc4)c3)c2nc1N[C@@H]1CC[C@H](O)C1 [Compound 311]	≤ 10 nM	≤ 10 nM
CCc1nc2c(N)ncc(-c3cnn(C4CCN(CCO)CC4)c3)c2nc1NC1CCOCC1 [Compound 156]	≤ 10 nM	10 to 100 nM
CCc1nc2c(N)ncc(-c3ccc(N4CCC(N5CCN(C)CC5)CC4)c(OC)c3)c2nc1N[C@H]1CC[C@@H](O)C1 [Compound 71]	≤ 10 nM	10 to 100 nM
CCc1nc2c(N)ncc(-c3cnn(C4CCN(C5CCC5)CC4)c3)c2nc1N[C@@H]1CC[C@H](O)C1 [Compound 212]	≤ 10 nM	≤ 10 nM
CCc1nc2c(N)ncc(-c3cnn(-c4ccc(C#N)c(F)c4)c3)c2nc1N[C@@H]1CC[C@H](O)C1 [Compound 353]	≤ 10 nM	10 to 100 nM
CCCc1nc2c(N)ncc(-c3ccc(N4CCC(N5CCN(C)CC5)CC4)c(OC)c3)c2nc1NC1CCOCC1 [Compound 28]	≤ 10 nM	10 to 100 nM
CCc1nc2c(N)ncc(-c3ccc(N4CCC5(CCN(C)CC5)CC4)c(C)c3)c2nc1NC1CCOCC1 [Compound 31]	≤ 10 nM	10 to 100 nM
CCc1nc2c(N)ncc(-c3cnn(-c4ncc(C(C)(C)O)cn4)c3)c2nc1NC1CCOCC1 [Compound 348]	≤ 10 nM	10 to 100 nM
CCc1nc2c(N)ncc(-c3ccc(N4CCC(N5C6CCC5CN(C)C6)CC4)c(OC)c3)c2nc1NC1CCOCC1 [Compound 327, 3-ethyl-8-(3-methoxy-4-(4-(3-methyl-3,8-diazabicyclo[3.2.1]octyl-8-yl)piperidin-1-yl)phenyl)-N2-(tetrahydro-2H-pyran-4-yl)pyridino[3,4-b]pyrazine-2,5-diamine]	≤ 10 nM	10 to 100 nM
CCc1nc2c(N)ncc(-c3cnn(-c4ccc(=O)n(C)c4)c3)c2nc1N[C@@H]1CC[C@H](O)C1 [Compound 301]	≤ 10 nM	≤ 10 nM
CCc1nc2c(N)ncc(-c3cnn(C4CCN(CC)CC4)c3)c2nc1N[C@H]1CCOC1 [Compound 224]	≤ 10 nM	≤ 10 nM
CCc1nc2c(N)ncc(-c3ccc(-c4cnn(C5CCN(C)CC5)c4)c(OC)c3)c2nc1N[C@@H]1CC[C@H](O)C1 [Compound 312, (1S, 3R)-3-((5-amino-3-ethyl-8-(3-methoxy-4-(1-(1-methylpiperidin-4-yl)-1H-pyrazol-4-yl)phenyl)pyridino [3,4-b]pyrazin-2-yl)amino) cyclopentan-1-ol]	≤ 10 nM	10 to 100 nM
CCc1nc2c(N)ncc(-c3cnn(-c4cnc(C#N)cn4)c3)c2nc1N[C@@H]1CC[C@H](O)C1 [Compound 339]	≤ 10 nM	10 to 100 nM
CCc1nc2c(N)ncc(-c3cnn(C4CCN(c5ccncn5)CC4)c3)c2nc1N[C@@H]1CC[C@H](O)C1 [Compound 172]	≤ 10 nM	≤ 10 nM
CCc1nc2c(N)ncc(-c3cnn(-c4cnc(C(C)(C)O)cn4)c3)c2nc1N[C@@H]1CC[C@H](O)C1 [Compound 332]	≤ 10 nM	≤ 10 nM
CCOCC1(COCC)CCC(n2cc(-c3cnc(N)c4nc(CC)c(N[C@@H]5CC[C@H](O)C5)nc34)cn2)CC1 [Compound 205]	≤ 10 nM	≤ 10 nM
